From article PMC10671074, “Tumor Regression upon Intratumoral and Subcutaneous Dosing of the STING Agonist ALG-031048 in Mouse Efficacy Models” (International Journal of Molecular Sciences, 2023) come the findings set out here.

One series concerns the target STING R232 (Homo sapiens, UniProt Q86WV6, H232R). The series can be described thus: HEK 293 STING R232 IRF reporter assay. The series is classed as cell-based. Further details: host or cells: 293T-Dual hSTING-R232 (HEK 293T derived). The settings on record: HEK 293 STING R232 cells, digitonin dosing buffer 30 min, 20 h; mean±standard deviation; read-out: Reporter Cell Assay EC50, STING R232 IRF. As to the method: Assays were set up after allowing cells to adhere for 48 h. Compounds dissolved in water were serially diluted in dosing buffer containing 10 µg/mL of digitonin (MP Biomedicals, Solon, OH, USA). Media were aspirated from the cells, and 50 µL of buffer with compound was added in triplicate. […] An aliquot of 100 µL of CellTiter-Glo® (Promega, Madison, WI, USA) was added to the original plate still containing the cells, and luminescence was determined to measure viability. All readouts were measured on an Envision plate reader from Perkin Elmer. Data were analyzed using GraphPad™ Prism’s version 8.0 [Agonist] vs. response—variable slope (four parameters) model.
In general terms: Reporter assays use an easily measured gene product as a stand-in for the process of interest.

Series [1] has as its system phosphodiesterase I from Crotalus adamanteus venom (SVPD). The series can be described thus: in vitro. The settings on record: pH 8.
The nature of series [2]: Liver microsomal stability, human. The settings on record: pH 7.4, 0.5 mg/mL human liver microsomes, 37 °C, read-out: Liver Microsome t½, Human. The series is classed as in vitro ADME. Here is the method:
The liver microsomal stability assay was carried out in 96-well microtiter plates. The test compounds at 5 µM and the reference compound (verapamil) at 1 µM final concentration were incubated separately at 37 °C with 0.5 mg/mL liver microsomes, with or without 1 mM NADPH in 100 mM potassium phosphate buffer, pH 7.4 with 3.3 mM MgCl2. […] At each of the time points (0, 15, 30, and 60 min), the enzymatic reaction was terminated with the addition of 150 μL of quenching solution (100% acetonitrile, 0.1% formic acid, and the internal standard), and subsequently the mixtures were vortexed vigorously for 20 min and centrifuged at 4000 rpm at 10 °C. The supernatants (80 µL) were transferred to a clean 96-well plate and analyzed via LC/MS/MS. The peak area ratios of each test compound over the internal standard were plotted against incubation time, and the t½ was calculated from the curve assuming first-order kinetics.
A general note: Liver microsomes are vesicles of endoplasmic reticulum, rich in cytochrome P450 enzymes.

The subject of another series is primary human monocytes. The series can be described thus: Activation of primary human monocytes (CD83/CD86 flow cytometry). The series is classed as cell-based. The settings on record: Monocyte, 24 h after stimulation. An excerpt:
Frozen human PBMCs (100 × 10^6 cells) were obtained from Stem Cell Technologies (Kent, WA, USA). Monocytes were purified from PBMCs using a CD14^+ pan-monocyte-negative isolation kit and an LS column (Miltenyi Biotec, Bergisch Gladbach, Germany). Magnetically labeled non-target cells were depleted by retaining them within a MACS column in the magnetic field of a MACS Separator, while highly purified unlabeled CD1 D16^− cells were collected and used to generate dendritic cells.
The cell suspension was then incubated with a predetermined optimal concentration of the appropriate fluorescent dye-labeled monoclonal antibodies (mAbs) against human cell surface markers on ice for 30 min. The fluorescent dye-labeled mAbs against human cell surface molecules included anti-CD209, anti-CD14, anti-CD11c, anti-CD40, anti-HLA-DR, anti-CD86, and anti-CD83 (BD Biosciences, Franklin Lakes, NJ, USA or BioLegend, San Diego, CA, USA). In addition, a fixable live/dead stain (Thermo Fisher Scientific) at a dilution of 1:1000 was added to exclude dead cells. After several washes with FACS buffer, cells were resuspended in FACS buffer and analyzed on an Attune Nxt flow cytometer (Thermo Fisher Scientific) with FlowJo v10 software (BD Biosciences). An aliquot of the cells to be analyzed served as controls by using “fluorescent minus-one” to establish gates and determine the frequency of positively stained cells. Ultra-comp beads (Thermo Fisher Scientific) were used as single-stained controls to set up compensation on the flow cytometer.

The test system of series [3] is HEK 293 cells lacking functional STING. The series can be described thus: HEK 293 STING Dual Null IRF reporter assay.
Protocol: Assays were set up after allowing cells to adhere for 48 h. Compounds dissolved in water were serially diluted in dosing buffer containing 10 µg/mL of digitonin (MP Biomedicals, Solon, OH, USA). Media were aspirated from the cells, and 50 µL of buffer with compound was added in triplicate. […] The next day, 20 µL of media was transferred to two new plates, and either 50 µL of QuantiLuc™ (Invivogen) to measure IFN-β expression or 80 µL of QuantiBlue™ (Invivogen) to measure IRF activity were added. […] An aliquot of 100 µL of CellTiter-Glo® (Promega, Madison, WI, USA) was added to the original plate still containing the cells, and luminescence was determined to measure viability. All readouts were measured on an Envision plate reader from Perkin Elmer. Data were analyzed using GraphPad™ Prism’s version 8.0 [Agonist] vs. response—variable slope (four parameters) model.
with increasing concentrations of the STING agonists or IFN‐β. After 24 hours, IRF reporter activity
Series [4] concerns THP-1 cells (STING isoform HAQ). The series can be described thus: THP-1 cytokine (IP-10) release assay. The series is classed as cell-based, human. The settings on record: overnight incubation, THP-1 (STING HAQ). As to the method:
THP-1 cells (American Type Culture Collection, Manassas, VA, USA) were maintained in maintenance media consisting of RPMI-1640, 1% Pen-Strep, 1% NEAA, 1% Glutagro™, 1% HEPES (all Corning), and 10% FBS (Sigma-Aldrich). On the day of dosing, cells were pelleted and resuspended in fresh media to a density of 1.6 × 10^6 cells/mL. An aliquot of […] was added to each well of a 96-well U-bottom plate for a total of 1.0 × 10^5 cells per well, and the final volume was adjusted to 150 µL using fresh media. Compound dilutions were prepared in maintenance media, and 50 µL of diluted compound were added to wells in duplicate. Cells were incubated with the compound overnight at 37 °C. The next day, plates were centrifuged, and the supernatant was collected in a 96-well flat-bottom plate. Human IP-10 was detected using the ProQuantum Immunoassay kit (Thermo Fisher Scientific, Waltham, MA, USA). Data were analyzed using a standard curve and reported as fold-increase over background. Graphs were generated using GraphPad™ Prism version 8.0.

The test system of another series is plasma cytokines. The series can be described thus: Plasma cytokine levels in Hepa1–6 tumor-bearing mice. The settings on record: Hepa1–6, 6 hours after the first dose. It counts as in vivo, mouse. Here is the method: Figure S6. A: Tumor regression in Hepa1‐6 tumor‐bearing […] mice upon IT treatment with three doses of 25 μg (light blue) or 100 μ g ALG‐031048 (dark blue), in comparison to treatment with 10 mg/kg anti‐PD‐1 antibody twice per week, 6 doses total (red). Vehicle‐treated animals are shown in black; shown are the mean tumor volumes ± standard deviation for each group of 10 animals.
Irregular, crater‐shaped tumors prevented accurate tumor volume measurement between Days 8‐
25. Treatment started when tumors reached an average volume of 98 mm3. Statistical analysis pro‐ vided in Table S4. B: Tumor weight for each group at the end of the study. Statistical analysis pro‐ vided in Table S5. C: Plasma cytokine levels 6 hours after the first dose. Each symbol represents one animal as well as the mean of the group (n=10). Unpaired t‐test was used to compare different groups: all groups for al l cytokines were statistically significant from each other with P‐values of < 0.0001 with the following exceptions: vehicle vs anti‐PD‐1 were non‐significant (all cytokines); the […]

Each structure is given as a SMILES string. Where two headings read alike, the source gives them in different places.

Chain of STING R232 (Q86WV6 whole entry H232R): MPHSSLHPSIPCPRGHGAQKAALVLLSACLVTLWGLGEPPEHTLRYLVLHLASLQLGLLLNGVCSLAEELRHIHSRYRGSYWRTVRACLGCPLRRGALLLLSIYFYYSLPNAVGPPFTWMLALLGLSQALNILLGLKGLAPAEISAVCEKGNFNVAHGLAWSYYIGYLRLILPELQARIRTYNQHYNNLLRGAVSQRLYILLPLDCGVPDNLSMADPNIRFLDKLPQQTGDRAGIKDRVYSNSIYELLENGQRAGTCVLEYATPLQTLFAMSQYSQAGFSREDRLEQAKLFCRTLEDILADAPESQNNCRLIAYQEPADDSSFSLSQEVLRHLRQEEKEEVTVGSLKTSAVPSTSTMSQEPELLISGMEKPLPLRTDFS

On to `CO[C@H]1[C@H]2OP(=O)(O)OC[C@@]34C[C@@H]3[C@@H](n3cnc5c(N)ncnc53)[C@H](O)[C@@H]4O[P@](=O)(S)OC[C@H]1O[C@H]2n1cnc2c(=O)[nH]c(N)nc21` [ALG-031048], for which the EC50 at STING R232 is 29 nM; in the series with primary human monocytes (read-out: EC50 CD83, Monocytes), 8100 nM; in the series on primary human monocytes (read-out: EC50 CD86, Monocytes), 1120 nM; in series [3] (Homo sapiens, HEK293, read-out: Reporter Cell Assay EC50, STING Dual Null IRF) it was greater than 100000 nM. For the same compound, the fraction remaining at 24 h in series [1] stood at 100%. Moreover, the half-life at 5 µM in series [2] is greater than 8 h. Also, the “STING dependence of cellular activation (IRF reporter)” value in series [3] (HEK 293 R232 cells vs control cells lacking STING expression, 24 hours) is “dependent on the expression of STING”. Further, the “Release of IP-10 in THP-1 cells” value in series [4] is given as “dose-dependent release of IP-10”. Besides, in the series with plasma cytokines, the “Plasma cytokines after IT administration” value was “increased plasma cytokines IFN-β1, IFN-γ, IL-6, MCP-1, MIP-1α, and TNF-α”.

As a reminder, the EC50 is the concentration at which the effect is half-maximal. For orientation: fraction remaining means the share of the starting amount still present when the sample was taken.
